Test results reported in patent US20220202885A1, “ONCOLYTIC VIRUS WITH IMPROVED SAFETY AND […]” (BIONOXX INC., priority 2019, published 2022).

Key:
[1] = tested on: CD8+ T cells secreting IFN-γ; format: in vivo, mouse; settings: CT-26 allograft Balb/c mice; same doses and regimens as tumor volume test; co-culture with CT-26 cells
[2] = tested on: mouse colorectal cancer cell line (CT-26) allograft; assay: Tumor volume in mouse colorectal cancer cell line-transplanted mice (Example 13.2); format: in vivo; settings: CT-26 allograft Balb/c mice; WOTS-418 1×10^8 pfu i.p. D0, D3 and 1×10^7 pfu i.t. D14, D21; hydroxyurea 30 mg/kg i.p. once a day
[3] = tested on: human breast cancer cell line (MDA-MB-231) xenograft; assay: Tumor volume in human breast cancer cell line-transplanted mice (Example 11); format: in vivo, mouse; settings: MDA-MB-231 xenograft Balb/c nu/nu mice

In the case of hydroxyurea, the “CD8+ T cells secreting IFN-γ among spleen CD8+ T cells, compared with control mice (ELISPOT)” value [1] is reported as “abundant”, the “tumor volume on day 25 compared with the control group” value [2] is reported as “suppressed tumor volume” and the “tumor volume on day 31 relative to the initial tumor volume” value ([3]; HU 30 mg/kg i.p. twice a day, day 31) is reported as at least 5 fold. For the same substance, the “tumor growth (tumor volume measured for 31 days)” value ([3]; WOTS-418 1×10^7 pfu (D0 i.p., D10 i.t.), hydroxyurea 30 mg/kg i.p. twice a day) was “tumor growth was not inhibited”.
